Where a SMILES comes first, the peptide text is derived from it. [ ]: non-standard residue; d: D form. Aib = CC(C)(N)C(=O)O
How the values were obtained:
Format in all cases: cell-based
[1] = molecular target: T1, GLP-1 receptor (Homo sapiens, UniProt P43220); test: cAMP synthesis functional assay (firefly luciferase reporter in HEK293 cells), GLP-1 receptor; details: for EC50: GLP-1 Receptor EC50, cAMP luciferase reporter assay as in Example 16; for GLP-1 Receptor relative activity: relative to the standard (Std.) EC50 of the same run
T1 construct: expressed in transfected cells; host or cells: HEK293

[2] = molecular target: T2, glucagon receptor (Homo sapiens, UniProt P47871); test: cAMP synthesis functional assay (firefly luciferase reporter in HEK293 cells), glucagon receptor; details: for EC50: Glucagon Receptor EC50, cAMP luciferase reporter assay as in Example 16; for Glucagon Receptor relative activity: relative to the standard (Std.) EC50 of the same run
T2 construct: expressed in transfected cells; host or cells: HEK293

[3] = test system: glucagon receptor, GLP-1 receptor or GIP receptor; test: Agonist profile across receptors assigned from the cAMP reporter assay data; details: assigned from the in vitro EC50 data of Tables 1-4
[4] = molecular target: T3, GIP receptor (Homo sapiens, UniProt P48546); test: cAMP synthesis functional assay (firefly luciferase reporter in HEK293 cells), GIP receptor; details: for GIP Receptor relative activity: relative to the standard (Std.) EC50 of the same run; for EC50: GIP Receptor EC50, cAMP luciferase reporter assay as in Example 16
T3 construct: expressed in transfected cells; host or cells: HEK293
T3 sequence (P48546 22-466): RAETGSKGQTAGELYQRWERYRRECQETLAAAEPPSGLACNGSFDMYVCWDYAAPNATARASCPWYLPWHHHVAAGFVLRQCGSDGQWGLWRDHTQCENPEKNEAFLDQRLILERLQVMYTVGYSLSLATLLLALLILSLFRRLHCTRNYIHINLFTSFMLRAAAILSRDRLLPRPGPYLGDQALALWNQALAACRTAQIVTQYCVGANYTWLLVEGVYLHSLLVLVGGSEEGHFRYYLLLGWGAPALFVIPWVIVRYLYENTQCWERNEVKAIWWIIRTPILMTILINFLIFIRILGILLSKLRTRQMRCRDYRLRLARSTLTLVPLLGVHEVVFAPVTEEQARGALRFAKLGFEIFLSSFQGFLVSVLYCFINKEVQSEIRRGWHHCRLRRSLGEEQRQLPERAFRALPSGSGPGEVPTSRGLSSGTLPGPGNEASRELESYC

T1 sequence (P43220 24-463, species assumed): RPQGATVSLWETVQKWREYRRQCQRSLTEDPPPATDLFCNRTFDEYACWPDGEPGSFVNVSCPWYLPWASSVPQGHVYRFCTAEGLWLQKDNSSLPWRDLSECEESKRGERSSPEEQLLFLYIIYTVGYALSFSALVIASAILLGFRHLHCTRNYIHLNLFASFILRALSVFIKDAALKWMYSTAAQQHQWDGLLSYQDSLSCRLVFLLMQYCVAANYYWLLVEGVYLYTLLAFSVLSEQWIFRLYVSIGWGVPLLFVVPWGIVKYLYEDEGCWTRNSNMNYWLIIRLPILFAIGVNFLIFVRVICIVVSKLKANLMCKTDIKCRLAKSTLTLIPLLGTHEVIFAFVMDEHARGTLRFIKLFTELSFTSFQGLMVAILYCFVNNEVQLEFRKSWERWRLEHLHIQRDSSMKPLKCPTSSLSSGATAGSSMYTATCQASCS
T2 sequence (P47871 26-477): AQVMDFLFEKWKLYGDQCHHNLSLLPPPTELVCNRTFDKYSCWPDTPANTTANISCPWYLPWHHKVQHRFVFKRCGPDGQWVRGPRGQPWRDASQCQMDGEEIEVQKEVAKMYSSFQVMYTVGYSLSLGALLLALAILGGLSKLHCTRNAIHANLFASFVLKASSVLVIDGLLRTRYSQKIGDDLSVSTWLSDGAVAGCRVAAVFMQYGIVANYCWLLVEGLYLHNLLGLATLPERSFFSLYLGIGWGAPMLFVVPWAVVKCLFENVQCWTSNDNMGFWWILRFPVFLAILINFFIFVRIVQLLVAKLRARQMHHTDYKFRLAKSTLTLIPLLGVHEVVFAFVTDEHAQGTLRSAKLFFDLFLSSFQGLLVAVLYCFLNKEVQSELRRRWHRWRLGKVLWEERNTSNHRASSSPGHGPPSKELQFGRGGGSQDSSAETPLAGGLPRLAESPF

SMILES	EC50 [1] [nM]	GLP-1 Receptor relative activity [1] [%]	EC50 [2] [nM]	Glucagon Receptor relative activity [2] [%]	receptor activity profile (glucagon / GLP-1 / GIP agonism) [3]	GIP Receptor relative activity [4] [%]	EC50 [4] [nM]
CC[C@H](C)[C@H](NC(=O)[C@H](CO)NC(=O)[C@H](CCCCN)NC(=O)[C@H](CC(=O)O)NC(=O)[C@H](CO)NC(=O)[C@@H](NC(=O)[C@H](Cc1ccccc1)NC(=O)[C@@H](NC(=O)CNC(=O)[C@H](CCC(=O)O)NC(=O)C(C)(C)NC(=O)[C@@H](N)Cc1ccc(O)cc1)[C@@H](C)O)[C@@H](C)O)C(=O)N[C@@H](Cc1ccc(O)cc1)C(=O)N[C@@H](CC(C)C)C(=O)N[C@@H](CC(=O)O)C(=O)N[C@@H](CCCCN)C(=O)N[C@@H](CCC(N)=O)C(=O)N[C@@H](C)C(=O)N[C@@H](C)C(=O)NC(C)(C)C(=O)N[C@@H](CCC(=O)O)C(=O)N[C@@H](Cc1ccccc1)C(=O)N[C@H](C(=O)N[C@@H](CC(N)=O)C(=O)N[C@@H](Cc1c[nH]c2ccccc12)C(=O)N[C@@H](CC(C)C)C(=O)N[C@@H](CC(C)C)C(=O)N[C@@H](C)C(=O)NCC(N)=O)C(C)C [mt-285] (H-Y[Aib]EGTFTSDKSIYLDKQAA[Aib]EFVNWLLAG-NH2; N-terminus assumed)	0.784	0.75	12.6	0.23	exhibited activity at only the GIP receptor	36.43	–
CCCCCCCCCCCCCC(=O)NCCCC[C@H](NC(=O)[C@H](CO)NC(=O)[C@@H]1CCCN1C(=O)[C@@H]1CCCN1C(=O)[C@@H]1CCCN1C(=O)[C@H](C)NC(=O)CNC(=O)[C@H](CO)NC(=O)[C@H](CO)NC(=O)[C@@H]1CCCN1C(=O)CNC(=O)CNC(=O)[C@H](C)NC(=O)[C@H](CC(C)C)NC(=O)[C@H](CC(C)C)NC(=O)[C@H](Cc1c[nH]c2ccccc12)NC(=O)[C@H](CS)NC(=O)[C@@H](NC(=O)[C@H](Cc1ccccc1)NC(=O)[C@H](CCC(=O)O)NC(=O)C(C)(C)NC(=O)[C@H](C)NC(=O)[C@H](C)NC(=O)[C@H](CCC(N)=O)NC(=O)[C@H](CCCCN)NC(=O)[C@H](CC(=O)O)NC(=O)[C@H](CC(C)C)NC(=O)[C@H](Cc1ccc(O)cc1)NC(=O)[C@@H](NC(=O)[C@H](CO)NC(=O)[C@H](Cc1ccc(O)cc1)NC(=O)[C@H](CC(=O)O)NC(=O)[C@H](CO)NC(=O)[C@@H](NC(=O)[C@H](Cc1ccccc1)NC(=O)[C@@H](NC(=O)CNC(=O)[C@H](CCC(N)=O)NC(=O)C(C)(C)NC(=O)[C@@H](N)Cc1ccc(O)cc1)[C@@H](C)O)[C@@H](C)O)[C@@H](C)CC)C(C)C)C(N)=O [mt-286]	0.0225	52.00	0.0612	84.80	exhibited activity at the GIP, GLP-1, and glucagon receptors	68.55	0.0159
CCCCCCCCCCCCCCCC(=O)NCCCC[C@H](NC(=O)[C@H](CO)NC(=O)[C@@H]1CCCN1C(=O)[C@@H]1CCCN1C(=O)[C@@H]1CCCN1C(=O)[C@H](C)NC(=O)CNC(=O)[C@H](CO)NC(=O)[C@H](CO)NC(=O)[C@@H]1CCCN1C(=O)CNC(=O)CNC(=O)[C@H](C)NC(=O)[C@H](CC(C)C)NC(=O)[C@H](CC(C)C)NC(=O)[C@H](Cc1c[nH]c2ccccc12)NC(=O)[C@H](CS)NC(=O)[C@@H](NC(=O)[C@H](Cc1ccccc1)NC(=O)[C@H](CCC(=O)O)NC(=O)C(C)(C)NC(=O)[C@H](C)NC(=O)[C@H](C)NC(=O)[C@H](CCC(N)=O)NC(=O)[C@H](CCCCN)NC(=O)[C@H](CC(=O)O)NC(=O)[C@H](CC(C)C)NC(=O)[C@H](Cc1ccc(O)cc1)NC(=O)[C@@H](NC(=O)[C@H](CO)NC(=O)[C@H](Cc1ccc(O)cc1)NC(=O)[C@H](CC(=O)O)NC(=O)[C@H](CO)NC(=O)[C@@H](NC(=O)[C@H](Cc1ccccc1)NC(=O)[C@@H](NC(=O)CNC(=O)[C@H](CCC(N)=O)NC(=O)C(C)(C)NC(=O)[C@@H](N)Cc1ccc(O)cc1)[C@@H](C)O)[C@@H](C)O)[C@@H](C)CC)C(C)C)C(N)=O [mt-287]	0.0124	94.35	0.0187	277.54	exhibited activity at the GIP, GLP-1, and glucagon receptors	117.20	0.0093
CCCCCCCCCCCCCCCCCC(=O)NCCCC[C@H](NC(=O)[C@H](CO)NC(=O)[C@@H]1CCCN1C(=O)[C@@H]1CCCN1C(=O)[C@@H]1CCCN1C(=O)[C@H](C)NC(=O)CNC(=O)[C@H](CO)NC(=O)[C@H](CO)NC(=O)[C@@H]1CCCN1C(=O)CNC(=O)CNC(=O)[C@H](C)NC(=O)[C@H](CC(C)C)NC(=O)[C@H](CC(C)C)NC(=O)[C@H](Cc1c[nH]c2ccccc12)NC(=O)[C@H](CS)NC(=O)[C@@H](NC(=O)[C@H](Cc1ccccc1)NC(=O)[C@H](CCC(=O)O)NC(=O)C(C)(C)NC(=O)[C@H](C)NC(=O)[C@H](C)NC(=O)[C@H](CCC(N)=O)NC(=O)[C@H](CCCCN)NC(=O)[C@H](CC(=O)O)NC(=O)[C@H](CC(C)C)NC(=O)[C@H](Cc1ccc(O)cc1)NC(=O)[C@@H](NC(=O)[C@H](CO)NC(=O)[C@H](Cc1ccc(O)cc1)NC(=O)[C@H](CC(=O)O)NC(=O)[C@H](CO)NC(=O)[C@@H](NC(=O)[C@H](Cc1ccccc1)NC(=O)[C@@H](NC(=O)CNC(=O)[C@H](CCC(N)=O)NC(=O)C(C)(C)NC(=O)[C@@H](N)Cc1ccc(O)cc1)[C@@H](C)O)[C@@H](C)O)[C@@H](C)CC)C(C)C)C(N)=O [mt-288]	0.0138	84.78	0.0207	250.72	exhibited activity at the GIP, GLP-1, and glucagon receptors	79.56	0.0137
CC[C@H](C)[C@H](NC(=O)[C@H](CO)NC(=O)[C@H](Cc1ccc(O)cc1)NC(=O)[C@H](CC(=O)O)NC(=O)[C@H](CO)NC(=O)[C@@H](NC(=O)[C@H](Cc1ccccc1)NC(=O)[C@@H](NC(=O)CNC(=O)[C@H](CCC(N)=O)NC(=O)C(C)(C)NC(=O)[C@@H](N)Cc1ccc(O)cc1)[C@@H](C)O)[C@@H](C)O)C(=O)N[C@@H](Cc1ccc(O)cc1)C(=O)N[C@@H](CC(C)C)C(=O)N[C@@H](CC(=O)O)C(=O)N[C@@H](CCCCN)C(=O)N[C@@H](CCC(N)=O)C(=O)N[C@@H](C)C(=O)N[C@@H](C)C(=O)NC(C)(C)C(=O)N[C@@H](CCC(=O)O)C(=O)N[C@@H](Cc1ccccc1)C(=O)N[C@H](C(=O)N[C@@H](CS)C(=O)N[C@@H](Cc1c[nH]c2ccccc12)C(=O)N[C@@H](CC(C)C)C(=O)N[C@@H](CC(C)C)C(=O)N[C@@H](C)C(=O)NCC(=O)NCC(=O)N1CCC[C@H]1C(=O)N[C@@H](CO)C(=O)N[C@@H](CO)C(=O)NCC(=O)N[C@@H](C)C(=O)N1CCC[C@H]1C(=O)N1CCC[C@H]1C(=O)N1CCC[C@H]1C(=O)N[C@@H](CO)C(=O)N[C@@H](CCCCN)C(N)=O)C(C)C [mt-289]	0.0144	81.25	0.0766	67.75	exhibited activity at the GIP, GLP-1, and glucagon receptors	46.58	0.0234
CCCCCCCCCCCCCCCC(=O)NCCCC[C@H](NC(=O)[C@H](CO)NC(=O)[C@@H]1CCCN1C(=O)[C@@H]1CCCN1C(=O)[C@@H]1CCCN1C(=O)[C@H](C)NC(=O)CNC(=O)[C@H](CO)NC(=O)[C@H](CO)NC(=O)[C@@H]1CCCN1C(=O)CNC(=O)CNC(=O)[C@H](C)NC(=O)[C@H](CC(C)C)NC(=O)[C@H](CC(C)C)NC(=O)[C@H](Cc1c[nH]c2ccccc12)NC(=O)[C@H](CS)NC(=O)[C@@H](NC(=O)[C@H](Cc1ccccc1)NC(=O)[C@H](CCC(=O)O)NC(=O)C(C)(C)NC(=O)[C@H](C)NC(=O)[C@H](C)NC(=O)[C@H](CCC(N)=O)NC(=O)[C@H](CCCCN)NC(=O)[C@H](CC(=O)O)NC(=O)[C@H](CC(C)C)NC(=O)[C@H](Cc1ccc(O)cc1)NC(=O)[C@@H](NC(=O)[C@H](CO)NC(=O)[C@H](Cc1ccc(O)cc1)NC(=O)[C@H](CC(=O)O)NC(=O)[C@H](CO)NC(=O)[C@@H](NC(=O)[C@H](Cc1ccccc1)NC(=O)[C@@H](NC(=O)CNC(=O)[C@H](CCC(=O)O)NC(=O)C(C)(C)NC(=O)[C@@H](N)Cc1ccc(O)cc1)[C@@H](C)O)[C@@H](C)O)[C@@H](C)CC)C(C)C)C(N)=O [mt-296]	0.0124	130.65	0.421	11.34	exhibited activity at the GIP, GLP-1, and glucagon receptors	211.69	–
